Experimental data as given in patent US7238716B2, “Alkanoic acid derivatives process for their production and use thereof” (Takeda Pharmaceuticals Company Limited, priority 2000, dated 2007).
Where two headings read alike, the source gives them in different places.

Experiments:
PPARγ-RXRα heterodimer = target: T1, PPARγ-RXRα heterodimer (Homo sapiens, UniProt P37231); experiment: PPARγ-RXRα heterodimer ligand activity, luciferase reporter in PPARγ:RXRα:4ERPP/CHO-K1 cells (Test Example 3); type: cell-based; conditions: concentration for 50% of the maximum fold induction of luciferase activity; 48 hours, CHO-K1 cells
T1 construct: expressed in transfected cells; host or cells: CHO-K1
T1 sequence (P37231 1-477 isoform P37231-2): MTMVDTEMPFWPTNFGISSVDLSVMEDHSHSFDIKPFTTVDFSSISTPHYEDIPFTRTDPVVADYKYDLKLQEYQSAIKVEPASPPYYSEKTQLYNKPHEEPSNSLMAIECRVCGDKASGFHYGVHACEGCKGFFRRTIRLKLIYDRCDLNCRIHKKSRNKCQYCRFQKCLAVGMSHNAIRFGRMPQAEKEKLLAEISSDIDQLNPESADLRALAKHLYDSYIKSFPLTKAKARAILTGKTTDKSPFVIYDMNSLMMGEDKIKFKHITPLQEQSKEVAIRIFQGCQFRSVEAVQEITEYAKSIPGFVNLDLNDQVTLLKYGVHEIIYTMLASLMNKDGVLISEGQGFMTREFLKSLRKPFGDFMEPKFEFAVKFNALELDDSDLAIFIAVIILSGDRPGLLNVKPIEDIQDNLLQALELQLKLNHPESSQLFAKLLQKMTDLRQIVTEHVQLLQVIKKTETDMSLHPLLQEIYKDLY
T1 sequence (P19793 1-462 partner): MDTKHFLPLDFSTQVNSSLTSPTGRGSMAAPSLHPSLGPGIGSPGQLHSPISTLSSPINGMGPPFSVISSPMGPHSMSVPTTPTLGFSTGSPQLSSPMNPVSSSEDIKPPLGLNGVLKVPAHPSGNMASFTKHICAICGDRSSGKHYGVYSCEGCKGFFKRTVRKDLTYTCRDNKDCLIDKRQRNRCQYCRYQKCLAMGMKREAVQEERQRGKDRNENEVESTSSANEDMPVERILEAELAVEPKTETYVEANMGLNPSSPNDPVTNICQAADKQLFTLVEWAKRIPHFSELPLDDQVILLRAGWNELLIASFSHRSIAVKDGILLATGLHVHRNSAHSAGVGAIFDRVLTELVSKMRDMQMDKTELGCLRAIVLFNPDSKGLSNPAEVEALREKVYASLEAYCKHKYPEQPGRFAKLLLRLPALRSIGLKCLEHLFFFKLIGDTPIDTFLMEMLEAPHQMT
Method: A PPARγ:RXRα:4ERPP/CHO-K1 cells obtained in Reference Example 5 described later were cultured in HAM F12 medium (produced by NISSUI SEIYAKU) containing 10% Fetal bovine serum (produced by Life Technologies, Inc., USA) and then inoculated to a 96-well white plate (produced by Corning Costar Corporation, USA) at the density of 2×10^4 cells/well, and cultured in a CO2 gas incubator at 37° C. overnight.
After washing the 96 well white plate with PBS (Phosphate-buffered saline), 90 μl of HAM F12 medium containing 0.1% fatty acid-free bovine serum albumin (BSA) and 10 μl of test compound were added, which was cultured in a CO2 gas incubator at 37° C. for 48 hours. After removing the medium, 40 μl of PIKKAGENE 7.5 (produced by Wako Pure Chemical Industries, Ltd.) was added. After stirring, the luciferase activity was determined using Lumistar (produced by BMG Labtechnologies GmbH, Germany).
A fold induction was calculated based on the luciferase activity of each test compound by taking the luciferase activity in the test compound non administration group as 1. The values of the test compound, concentration and the fold induction were analyzed using PRISM 2.01 (produced by GraphPad Software Inc. USA) to calculate the EC50 values, the effective concentration of a test compound for 50% of the maximum fold induction.
After a CHO-K1 cell cultured in a 750 ml tissue culture flask (produced by Corning-Costar Corporation, USA) containing HAM F12 medium (produced by NISSUI SEIYAKU) supplemented with 10% Fetal Bovine Serum (produced by Life Technologies, Inc., USA) was scraped by treating with 0.5 g/L trypsin-0.2 g/L EDTA (ethylenediaminetetraacetic acid) (produced by Life Technologies, Inc., USA), the cell was washed with PBS (phosphate buffered saline) (produced by Life Technologies, Inc., USA), centrifuged (1000 rpm, 5 minutes), and then suspended in PBS. Subsequently, a DNA was introduced into the cell under the condition shown below using GENE PULSER (produced by Bio-Rad Laboratories, USA).
Namely, to a cuvette having a 0.4 cm gap, added were 8×10^6 cells and 10 μg of plasmid pVgRXR2-hPPARγ obtained in Reference Example 3 and 10 μg of reporter plasmid pGL3-4ERPP-TK neo obtained in Reference Example 4, which was subjected to electroporation at the voltage of 0.25 kV under the capacitance of 960 μF. Subsequently, the cell was transferred into a HAM F12 medium containing 10% Fetal Bovine. Serum and cultured for 24 hours. Then the cell was scraped again and centrifuged, and then suspended in HAM F12 medium containing 10% Fetal Bovine Serum supplemented with 500 μg/ml of GENETICIN (produced by Life Technologies, Inc., USA) and 250 μg/ml of ZEOCIN (produced by Invitrogen, USA). The suspension was diluted to the density of 10^4 cells/ml, and inoculated to a 96-well plate (produced by Corning Costar Corporation, USA), which was cultured in a CO2 gas incubator at 37° C., whereby obtaining a GENETICIN- and ZEOCIN-resistant transformant.
Subsequently, after the transformant cell line thus obtained was cultured in a 24-well plate (produced by Corning Costar Corporation, USA), selected was a cell line, PPARγ:RXRα:4ERPP/CHO-K1 cell, in which the luciferase was expressed and induced by addition of 10 μM pioglitazone hydrochloride.

KKAY mice = experiment: Hypoglycemic and hypolipidemic actions in mice (Test Example 1); type: in vivo; conditions: Mus musculus, po, 96 h, 0.005% in powdery diet, four days
Excerpt: Test compounds were mixed in a powdery diet (CE-2, Japan Clea) at the concentration of 0.01% (compounds of Examples 7, 26, 29, 32) or 0.005% (compounds of Examples 1, 11, 15, 18, 24, 36, 37, 41, 48, 50, 51, 52, 58, 62, 79, 83, 88, 90, 91, 92, 93, 97, 107, 110, 115, 119, 122, 125, 129 and 130), and freely given to KKAY mice (11 to 12 weeks old, 5 mice in a group), a model of type 2 diabetes mellitus, for four days. During this period, water was given freely. Blood was sampled from orbital venous plexus, and glucose and triglyceride levels in plasma separated from blood were determined enzymatically using L type Wako Glu2 (Wako Pure Chemical Industries, Ltd.) or L type Wako TG.H (Wako Pure Chemical Industries, Ltd.), respectively.
In the Table, “hypoglycemic action (%)” means a percent reduction (%) of the glucose level in the test compound administration group when that of the test compound non-administration group is taken as 100%. In addition, the “hypolipidemic action (%)” means a percent reduction (%) of the triglyceride level in the test compound administration group when that of the test compound non-administration group is taken as 100%.

[1] = percent reduction of plasma glucose level vs non-administration group, read-out: hypoglycemic action (%)
[2] = percent reduction of plasma triglyceride level vs non-administration group, read-out: hypolipidemic action (%)

Row | Compound | EC50 (PPARγ-RXRα heterodimer) [nM] | melting point [°C] | inhibition in vivo at 0.005 % (KKAY mice; [1]) [%] | inhibition in vivo at 0.005 % (KKAY mice; [2]) [%]
1 | Cc1oc(-c2ccccc2)nc1CN(C(=O)OC(C)(C)C)c1ccc(COc2ccccc2CC(=O)O)cc1 [Example 60, 2-[2-[4-[(t-butoxycarbonyl)[(5-methyl-2-phenyl-4-oxazolyl)methyl]amino]benzyloxy]phenyl]acetic acid] | 6.1 | – | – | –
2 | CCOc1cc(OCc2ccc(OCc3nc(-c4ccccc4)oc3C)cc2)ccc1CCC(=O)O [Example 66, 3-[2-ethoxy-4-[4-[(5-methyl-2-phenyl-4-oxazolyl)methoxy]benzyloxy]phenyl]propionic acid] | 940 | 135 to 136 | – | –
3 | CCOc1cc(OCc2cccc(OCc3nc(-c4ccccc4)oc3C)c2)ccc1CCC(=O)O [Example 71, 3-[2-ethoxy-4-[3-[(5-methyl-2-phenyl-4-oxazolyl)methoxy]benzyloxy]phenyl]propionic acid] | 330 | 122 to 123 | – | –
4 | Cc1oc(-c2ccccc2)nc1COc1cncc(COc2cccc(CC(=O)O)c2)c1 [Example 78, 2-[3-[5-[(5-methyl-2-phenyl-4-oxazolyl)methoxy]-3-pyridylmethoxy]phenyl]acetic acid] | 190 | 143 to 144 | – | –
5 | Cc1oc(-c2ccccc2)nc1COc1cc(COc2cccc(CC(=O)O)c2)on1 [Example 81, 2-[3-[3-(5-methyl-2-phenyl-4-oxazolylmethoxy)-5-isoxazolylmethloxy]phenyl]acetic acid] | 62 | 128 to 129 | – | –
6 | CCCc1ccc(OCc2ccc(OCc3nc(-c4ccccc4)oc3C)cc2)c(CC(=O)O)c1 [Example 83, 2-[2-[4-[(5-methyl-2-phenyl-4-oxazolyl)methoxy]benzyloxy]-5-propylphenyl]acetic acid] | 110 | 116 to 117 | 48 | 43
7 | CCCc1oc(-c2ccccc2)nc1COc1ccc(COc2ccccc2CC(=O)O)cc1 [Example 85, 2-[2-[4-[(2-phenyl-5-propyl-4-oxazolyl)methoxy]benzyloxy]phenyl]acetic acid] | 260 | 129 to 130 | – | –
8 | Cc1oc(-c2ccco2)nc1COc1cc(COc2cccc(CC(=O)O)c2)ccn1 [Example 90] | 52 | 136 to 137 | 30 | 40
9 | Cc1oc(-c2ccccc2)nc1CCc1nc(COc2ccccc2CC(=O)O)co1 [Example 99, 2-[2-[[2-[2-(5-methyl-2-phenyl-4-oxazolyl)ethyl]-4-oxazolyl]methoxy]phenyl]acetic acid] | 160 | 109 to 110 | – | –
10 | Cc1oc(-c2ccccc2)nc1CCc1nc(COc2cccc(CC(=O)O)c2)co1 [Example 101, 2-[3-[[2-[2-(5-methyl-2-phenyl-4-oxazolyl)ethyl]-4-oxazolyl]methoxy]phenyl]acetic acid] | 43 | 127 to 128 | – | –
11 | Cc1oc(-c2ccccc2)nc1CCc1nc(COc2ccccc2CC(=O)O)cs1 [Example 103, 2-[2-[[2-[2-(5-methyl-2-phenyl-4-oxazolyl)ethyl]-4-thiazolyl]methoxy]phenyl]acetic acid] | 240 | 152 to 153 | – | –
12 | Cc1sc(-c2ccccc2)nc1COc1cc(COc2ncccc2CC(=O)O)on1 [Example 115, 2-[2-[[3-[(5-methyl-2-phenyl-4-thiazolyl)methoxy]-5-isoxazolyl]methoxy]-3-pyridyl]acetic acid] | 70 | 109 to 110 | 52 | 87
13 | Cc1oc(-c2ccccc2)nc1CCOc1ccc(COc2ccccc2CC(=O)O)cn1 [Example 119, 2-[2-[[6-[2-(5-methyl-2-phenyl-4-oxazolyl)ethoxy]-3-pyridyl]methoxy]phenyl]acetic acid] | 220 | 159 to 160 | 40 | 33
14 | Cc1sc(-c2ccccc2)nc1COc1ccc(COc2ccccc2CC(=O)O)cn1 [Example 122, 2-[2-[[6-[(5-methyl-2-phenyl-4-thiazolyl)methoxy]-3-pyridyl]methoxy]phenyl]acetic acid] | 17 | 173 to 174 | 52 | 67
15 | Cc1oc(-c2ccco2)nc1COc1ccc(COc2ccccc2CC(=O)O)cn1 [Example 124] | 42 | 119 to 120 | – | –
16 | Cc1nn(-c2ccccn2)cc1COc1ccc(COc2ncccc2CC(=O)O)cc1 [Example 126, 2-[2-[4-[[3-methyl-1-(2-pyridyl)-1H-pyrazol-4-yl]methoxy]benzyloxy]-3-pyridyl]acetic acid] | 1700 | 150 to 151 | – | –
17 | COc1ccc(COc2cccc(CC(=O)O)c2)cc1OCc1nc(-c2ccccc2)oc1C [Example 132, 3-[4-methoxy-3-[(2-phenyl-5-methyl-4-oxazolyl)methoxy]benzyloxy]phenylacetic acid] | 110 | 114 to 115 | – | –
